Measurements reported in article PMC5390315 (Scientific Reports, 2017).
Where two headings read alike, the source gives them in different places.

What was measured:
[1] = tested on: HUVECs; test: Cytotoxicity in HUVECs; format: cell-based; conditions: Homo sapiens, HUVEC; primary HUVECs
Description: (§1) HUVECs were prepared from human umbilical cord veins, as previously described. The adherent cells were maintained in M200 medium supplemented with LSGS (Low Serum Growth Supplement), containing FBS, hydrocortisone, hEGF, bFGF, heparin, gentamycin/amphotericin (Life Technologies, Monza, Italy). Once confluent, the cells were detached by a trypsin–EDTA solution and used in experiments from the first to sixth passages.

[2] = tested on: Jurkat; test: Antiproliferative MTT assay, Jurkat; format: cell-based, human; conditions: Homo sapiens, Jurkat, 72 h, mean ± SE
Description: (§2) Human T-cell leukemia (Jurkat) and human B-cell leukemia (SEM and RS4;11) cells were grown in RPMI-1640 medium (Gibco, Milano, Italy). Breast adenocarcinoma (MCF-7), human cervix carcinoma (HeLa), human lung adenocarcinoma (A549) and human colon adenocarcinoma (HT-29) cells were grown in DMEM medium (Gibco, Milano, Italy), all supplemented with 115 units/mL penicillin G (Gibco, Milano, Italy), 115 μg/mL streptomycin (Invitrogen, Milano, Italy), and 10% fetal bovine serum (FBS; Invitrogen, Milano, Italy). Stock solutions (10 mM) of the different compounds were obtained by dissolving them in DMSO. Individual wells of a 96-well tissue culture microtiter plate were inoculated with 100 μL of complete medium containing 8 × 10^3 cells. The plates were incubated at 37 °C in a humidified 5% CO2 incubator for 18 h prior to the experiments. After medium removal, 100 μL of fresh medium containing the test compound at different concentrations was added to each well in triplicate and incubated at 37 °C for 72 h. The percentage of DMSO in the medium never exceeded 0.25%. This was also the maximum DMSO concentration in all cell-based assays described below.

[3] = tested on: panel of seven human tumor cell lines; test: Antiproliferative activity, range over panel of seven human tumor cell lines; format: cell-based; conditions: read-out: IC50 values, range over the cell line panel
Description: as §2

[4] = tested on: SEM cells; test: Antiproliferative MTT assay, SEM; format: cell-based, human; conditions: Homo sapiens, 72 h, mean ± SE
Description: as §2

[5] = tested on: HeLa cells; test: Annexin-V/PI apoptosis assay, HeLa; format: cell-based, human; conditions: 60 nM, 24 h
Description: (§3) Cell death was determined by flow cytometry of cells double stained with annexin V/FITC and PI. The Coulter Cytomics FC500 (Beckman Coulter) was used to measure the surface exposure of PS on apoptotic cells according to the manufacturer’s instructions (Annexin-V Fluos, Roche Diagnostics).

[6] = tested on: B16 murine melanoma cells; test: MTT assay on B16 murine melanoma cells; format: cell-based; conditions: Mus musculus
[7] = tested on: MCF-7; test: Antiproliferative MTT assay, MCF-7; format: cell-based, human; conditions: Homo sapiens, MCF7, 72 h, mean ± SE
Description: as §2

[8] = tested on: Jurkat cells; test: ROS production (H2-DCFDA), Jurkat; format: cell-based, human; conditions: 100 nM, untreated about 4%
[9] = tested on: PBL stimulated with PHA; test: Cytotoxicity in PHA-stimulated peripheral blood lymphocytes; format: cell-based; conditions: Homo sapiens, Lymphocyte, 72 h, MTT, mean ± SEM, read-out: IC50 PBLPHA
Description: (§4) Peripheral blood lymphocytes (PBL) from healthy donors were obtained from human peripheral blood (leucocyte rich plasma- buffy coats) from healthy volunteers using the Lymphoprep (Fresenius KABI Norge AS) gradient density centrifugation.
(§5) After extensive washing, cells were resuspended (1.0 × 10^6 cells/mL) in RPMI-1640 with 10% FBS and incubated overnight. For cytotoxicity evaluations in proliferating PBL cultures, non-adherent cells were resuspended at 5 × 10^5 cells/mL in growth medium, containing 2.5 μg/mL PHA (Irvine Scientific). Different concentrations of the test compounds were added, and viability was determined 72 h later by the MTT test. For cytotoxicity evaluations in resting PBL cultures, non-adherent cells were resuspended (5 × 10^5 cells/mL) and treated for 72 h with the test compounds, as described above.

[10] = tested on: bovine brain tubulin; test: Inhibition of tubulin polymerization; format: biochemical; conditions: tubulin at 10 μM; read-out: Tubulin assembly IC50 ± S.D
Description: To evaluate the effect of the compounds on tubulin assembly in vitro[41], varying concentrations of compounds were preincubated with 10 μM bovine brain tubulin in 0.8 M monosodium glutamate (pH adjusted to 6.6 with HCl in a 2.0 M stock solution) at 30 °C and then cooled to 0 °C. After addition of 0.4 mM GTP, the mixtures were transferred to 0 °C cuvettes in a recording spectrophotometer and warmed to 30 °C. Tubulin assembly was followed turbidimetrically at 350 nm. […] The capacity of the test compounds to inhibit colchicine binding to tubulin was measured as described, except that the reaction mixtures contained 1 μM tubulin, 5 μM [^3H]colchicine and 1 or 5 μM test compound.

[11] = tested on: HeLa cells; test: ROS production (H2-DCFDA), HeLa; format: cell-based, human; conditions: 100 nM, untreated about 4%
[12] = tested on: HUVECs; test: Disruption of capillary-like tubes on Matrigel; format: cell-based, human; conditions: 100 nM (highest concentration), 24 h
Description: as §1
Matrigel matrix (Basement Membrane Matrix, BD Biosciences, Italy) was kept at 4 °C for 3 h, when 230 μL of Matrigel solution was added to each well of a 24-well plate. After gelling at 37 °C for 30 min, gels were overlaid with 500 μL of medium containing 6 × 10^4 HUVECs. The cells were incubated over Matrigel for 6 h to allow capillary tubes to form. Different concentrations of test compound were added in the cultures and incubated for different times, and the disappearance of existing vasculature was monitored and photographed (five fields for each well: the four quadrants and the center) at a 10x magnification. Phase contrast images were recorded using a digital camera and saved as TIFF files. Image analysis was carried out using ImageJ image analysis software, and dimensional (percent area covered by HUVECs and total length of HUVECs network per field) and topological parameters (number of meshes and branching points per field) were determined. Values were expressed as percent change from control cultures grown with complete medium.

[13] = tested on: HeLa; test: Antiproliferative MTT assay, HeLa; format: cell-based, human; conditions: Homo sapiens, HeLa, 72 h, mean ± SE
Description: as §2

[14] = tested on: PBL not stimulated with PHA; test: Cytotoxicity in resting peripheral blood lymphocytes; format: cell-based; conditions: Homo sapiens, Lymphocyte, 72 h, MTT, mean ± SEM, read-out: IC50 PBLresting
Description: as §4, §5

[15] = tested on: Jurkat cells; test: Annexin-V/PI apoptosis assay, Jurkat; format: cell-based, human; conditions: 60 nM, 24 h
Description: as §3

[16] = tested on: RS 4;11; test: Antiproliferative MTT assay, RS 4;11; format: cell-based, human; conditions: Homo sapiens, RS4-11, 72 h, mean ± SE
Description: as §2

CCOc1ccc(-c2oc(C)nc2-c2cc(OC)c(OC)c(OC)c2)cc1 [Compound 4i, 4-(3,4,5-Trimethoxyphenyl)-5-(4-ethoxyphenyl)-2-methyloxazole]
IC50 [1]: > 100 µM | IC50 [2]: 4.1 ± 1.1 nM | IC50 ([3]; Homo sapiens): 0.5 to 20 nM | IC50 [3]: 0.5 to 20.2 nM | IC50 [4]: 6.1 ± 2.3 nM | apoptotic cells (annexin-V) [5]: 70% | IC50 [6]: 15.6 ± 1.9 nM | IC50 [7]: 4.5 ± 1.8 nM | DCF positive cells (ROS production) [8]: 25–30% | IC50 [9]: 18.3 ± 1.5 µM | IC50 [10]: 560 ± 100 nM | DCF positive cells (ROS production) [11]: 25–30% | antivascular effect on Matrigel preformed tubular structures [12]: did not show a significant antivascular effect | IC50 [13]: 0.9 ± 0.3 nM | IC50 [14]: 14.9 ± 3.5 µM | apoptotic cells (annexin-V) [15]: 40% | IC50 [16]: 2.1 ± 0.2 nM
